Patent publication US20060134095A1, “Antioxidative composition and composition for external use” (priority 2003, published 2006)

Key:
[1] = hydroxy radical scavenging activity by ESR spin trapping (H2O2/FeSO4, DMPO); settings: for hydroxyl radical scavenging activity (in words) / hydroxyl radical scavenging activity compared with pro-vitamin C (A2P: ascorbic acid-2-phosphate Na): ESR spin trapping, Table 2; for Remaining amount of hydroxyl radicals: relative signal intensity (DMPO-OH/MnO)
Method: (1) With regard to the foregoing samples, according to the direction in the following Table 1, the sample was put into a 1.5 ml Eppendorf tube, H2O2 was added, and reaction was carried out for 30 seconds after the addition for H2O2. Subsequently, the measurement was carried out by ESR, and the hydroxy radical scavenging activities of the fullerenes measured by the ESR spin trapping method were evaluated.
For preparation of the reagents, milli Q was used. As for the ESR apparatus, JES-FR30 (JEOL Co.) was used, and measurement was carried out using a high sensitive ESR water-soluble flat cell (LABOTEC Co.). The measurement conditions of ESR were as follows. Power: 4 mW, Field: 336±5, Sweep Time: 1 min., Modulation Width: 0.32 mT, Amp: 400, Response Time: 0.3 sec. Evaluation was performed with the ratio of the signal amplitude of OH to that of the paramagnetic internal standard, MnO.

[2] = superoxide scavenging activity by ESR spin trapping (hypoxanthine/xanthine oxidase, DMPO)
Method: (2) In addition, according to the direction in the following Table 3, each of the samples was put into a 1.5 ml Eppendorf tube, XOD was added, and reaction was carried out for 30 seconds. Subsequently, the measurement was carried out by ESR, whereby the superoxide scavenging activities measured by ESR spin trapping were evaluated. The measuring method was according to the case of the hydroxyl radical.
The measurement conditions of ESR were as follows. Power: 4 mW, Field: 336±5, Sweep Time: 1 min., Modulation Width: 0.1 mT, Amp: 790, Response Time: 0.3 sec. Evaluation was performed with the ratio of the signal amplitude of O2 to that of the paramagnetic internal standard, MnO.

[3] = test system: human skin epidermal keratinocytes; experiment: antioxidative effect against UVB in keratinocytes (CDCFH-DA fluorescence, intracellular peroxide/hydrogen peroxide); type: cell-based; settings: UVB 40 mJ/cm^2, samples added before irradiation, FIG. 1
Method: (3) With regard to various samples, their antioxidative effects against UVB were evaluated by using keratinocytes, a human major cell type.
The results are shown in Pig. 1.

Molecule	hydroxyl radical scavenging activity (in words) [1]	hydroxyl radical scavenging activity compared with pro-vitamin C (A2P: ascorbic acid-2-phosphate Na) [1]	radical scavenging activity in the superoxide test (in words; printed as hydroxyl radical scavenging activities) ([2]; ESR spin trapping, Table 4)	superoxide anion radical scavenging activity compared with pro-vitamin C (A2P) ([2]; ESR spin trapping, Table 4)	Remaining amount of hydroxyl radicals ([1]; ethanol, concentration not given, control (Milli-Q water) 3.0)	Remaining amount of superoxide anion radical ([2]; relative signal intensity (DMPO-OOH/MnO), ethanol, concentration not given, control (Milli-Q water) 3.0)	peroxide/hydrogen peroxide scavenging activity in skin cells (antioxidative effect) compared with pro-vitamin C (Asc2P-Na) [3]	Remaining amount of hydroxyl radicals ([1]; sample 9.26 μM, solubilized in 70% ethanol, diluted to 0.2%, control 3.0)
Fullerene modified with PEG [Sample F3]	significant	slightly superior to or equal to	significant	significantly superior	–	–	–	–
CCO [Ethanol, reference compound]	–	–	–	–	1.3	7.5	–	–
Hydroxylated fullerene [Sample F6]	significant	slightly superior to or equal to	–	equal to or more than	–	–	equal	0.6
